Experimental data reported in patent US20040116330A1, “Preventive/therapeutic method for cancer” (priority 2001, published 2004).

melting point [°C] | SMILES
102 to 104 | OCC(O)Cc1nccn1CCCc1cccc(OCc2coc(/C=C/c3ccc(C(F)(F)F)cc3)n2)c1 (stereo not shown) [Compound B25, 3-[1-(3-{3-[(2-{(E)-2-[4-(trifluoromethyl)phenyl]ethenyl}-1,3-oxazol-4-yl)methoxy]phenyl]propyl)-1H-imidazol-2-yl]-1,2-propanediol]
115 to 116 | FC(F)(F)c1ccc(/C=C/c2nc(COc3cccc(CCCn4ccnn4)c3)co2)cc1 [Compound B6, 1-(3-{3-[(2-((E)-2-[4-(trifluoromethyl)phenyl]ethenyl}-1,3-oxazol-4-yl)methoxy]phenyl}propyl)-1H-1,2,3-triazole]
124 to 125 | Fc1ccc(/C=C/c2nc(COc3ccc(CCCCn4ccnn4)cc3)co2)cc1 [Compound B2, 1-{4-[4-({2-[(E)-2-(4-fluorophenyl)ethenyl]-1,3-oxazol-4-yl}methoxy)phenyl]butyl}-1H-1,2,3-triazole]
126 to 128 | OCC(O)Cc1nccn1CCCCc1ccc(OCc2coc(/C=C/c3ccc(F)cc3F)n2)cc1 (stereo not shown) [Compound B26, 3-(1-{4-[4-({2-[(E)-2-(2,4-difluorophenyl)ethenyl]-1,3-oxazol-4-yl)methoxy)phenyl]butyl}-1H-imidazol-2-yl)-1,2-propanediol]
102 to 104 | Cc1cccc(/C=C/c2nc(COc3ccc(CCCCn4ccnc4CC(O)CO)cc3)co2)c1 (stereo not shown) [Compound B22, 3-(1-{4-[4-({2-[(E)-2-(3-methylphenyl)ethenyl]-1,3-oxazol-4-yl}methoxy)phenyl]butyl}-1H-imidazol-2-yl)-1,2-propanediol]
109 to 111 | Cc1cccc(/C=C/c2nc(COc3ccc(CCCCn4ccnc4CCO)cc3)co2)c1 [Compound B11, 2-[1-[4-[4-[[2-[(E)-2-(3-methylphenyl)ethenyl]-1,3-oxazol-4-yl]methoxy]phenyl]butyl]-1H-imidazol-2-yl]-1-ethanol]
94 to 95 | CCc1ccc(/C=C/c2nc(COc3ccc(CCCCn4ccnc4CCO)cc3)co2)cc1 [Compound B13, 2-[1-[4-[4-[[2-[(E)-2-(4-ethylphenyl)ethenyl]-1,3-oxazol-4-yl]methoxy]phenyl]butyl]-1H-imidazol-2-yl]-1-ethanol]
91 to 93 | Cc1ccccc1/C=C/c1nc(COc2ccc(CCCCn3ccnc3CCO)cc2)co1 [Compound B12, 2-[1-[4-[4-[[2-[(E)-2-(2-methylphenyl)ethenyl]-1,3-oxazol-4-yl]methoxy]phenyl]butyl]-1H-imidazol-2-yl]-1-ethanol]
130 to 132 | OCCc1nccn1CCCCc1ccc(OCc2coc(/C=C/c3ccc(F)cc3)n2)cc1 [Compound B14, 2-(1-{4-[4-({2-[(E)-2-(4-fluorophenyl)ethenyl]-1,3-oxazol-4-yl}methoxy)phenyl]butyl)-1H-imidazol-2-yl)-1-ethanol]
108 to 109 | Cc1ccc(/C=C/c2nc(COc3ccc(CCCCn4ccnc4CCO)cc3)co2)cc1 [Compound B10, 2-[1-[4-[4-[[2-[(E)-2-(4-methylphenyl)ethenyl]-1,3-oxazol-4-yl]methoxy]phenyl]butyl]-1H-imidazol-2-yl]-1-ethanol]
114 to 116 | OCC(O)Cc1nccn1CCCCc1ccc(OCc2coc(/C=C/c3ccc(F)cc3)n2)cc1 (stereo not shown) [Compound B23, 3-(1-{4-[4-({2-[(E)-2-(4-fluorophenyl)ethenyl]-1,3-oxazol-4-yl}methoxy)phenyl]butyl}-1H-imidazol-2-yl)-1,2-propanediol]
142 to 143 | OCC(O)Cc1nccn1CCCCc1ccc(OCc2coc(/C=C/c3ccc(C(F)(F)F)cc3)n2)cc1 (stereo not shown) [Compound B24, 3-[1-(4-(4-[(2-{(E)-2-[4-(trifluoromethyl)phenyl]ethenyl)-1,3-oxazol-4-yl)methoxy]phenyl}butyl)-1H-imidazol-2-yl]-1,2-propanediol]
92 to 94 | OCC(O)Cc1nccn1CCCc1cccc(OCc2coc(/C=C/c3ccc(F)cc3F)n2)c1 (stereo not shown) [Compound B27, 3-(1-{3-[3-({2-[(E)-2-(2,4-difluorophenyl)ethenyl]-1,3-oxazol-4-yl}methoxy)phenyl]propyl}-1H-imidazol-2-yl)-1,2-propanediol]
157 to 158 | FC(F)(F)c1ccc(/C=C/c2nc(COc3ccc(CCCn4ccnn4)cc3)co2)cc1 [Compound B5, 1-(3-{4-[(2-((E)-2-[4-(trifluoromethyl)phenyl]ethenyl)-1,3-oxazol-4-yl)methoxy]phenyl)propyl)-1H-1,2,3-triazole]
123 to 125 | OCC(O)Cc1nccn1CCCCc1ccc(OCc2coc(/C=C/c3c(F)cccc3F)n2)cc1 (stereo not shown) [Compound B28, 3-[1-[4-[4-[[2-[(E)-2-(2,6-difluorophenyl)ethenyl]-1,3-oxazol-4-yl]methoxy]phenyl]butyl]-1H-imidazol-2-yl]-1,2-propanediol]
149 to 150 | OCCc1nccn1CCCCc1ccc(OCc2coc(/C=C/c3ccc(Br)cc3)n2)cc1 [Compound B16, 2-[1-[4-[4-[[2-[(E)-2-(4-bromophenyl)ethenyl]-1,3-oxazol-4-yl]methoxy]phenyl]butyl]-1H-imidazol-2-yl]-1-ethanol]
93 to 95 | OCCc1nccn1CCCCc1ccc(OCc2coc(/C=C/c3ccc(F)cc3F)n2)cc1 [Compound B19, 2-[1-[4-[4-[[2-[(E)-2-(2,4-difluorophenyl)ethenyl]-1,3-oxazol-4-yl]methoxy]phenyl]butyl]-1H-imidazol-2-yl]-1-ethanol]
127 to 128 | OCCc1nccn1CCCCc1ccc(OCc2coc(/C=C/c3ccc(Cl)cc3)n2)cc1 [Compound B15, 2-[1-[4-[4-[[2-[(E)-2-(4-chlorophenyl)ethenyl]-1,3-oxazol-4-yl]methoxy]phenyl]butyl]-1H-imidazol-2-yl]-1-ethanol]
105 to 106 | Fc1ccc(/C=C/c2nc(COc3cccc(CCCn4ccnn4)c3)co2)cc1 [Compound B3, 1-{3-[3-({2-[(E)-2-(4-fluorophenyl)ethenyl]-1,3-oxazol-4-yl}methoxy)phenyl]propyl}-1H-1,2,3-triazole]
115 to 117 | Fc1ccc(/C=C/c2nc(COc3ccc(CCCCn4ccnn4)cc3)co2)c(F)c1 [Compound B7, 1-{4-[4-({2-[(E)-2-(2,4-difluorophenyl)ethenyl]-1,3-oxazol-4-yl}methoxy)phenyl]butyl}-1H-1,2,3-triazole]
94 to 96 | OCCc1nccn1CCCc1ccc(OCc2coc(/C=C/c3ccc(F)cc3F)n2)cc1 [Compound B20, 2-[1-[3-[4-[[2-[(E)-2-(2,4-difluorophenyl)ethenyl]-1,3-oxazol-4-yl]methoxy]phenyl]propyl]-1H-imidazol-2-yl]-1-ethanol]
89 to 90 | Fc1ccc(/C=C/c2nc(COc3cccc(CCCn4ccnn4)c3)co2)c(F)c1 [Compound B8, 1-{3-[3-({2-[(E)-2-(2,4-difluorophenyl)ethenyl]-1,3-oxazol-4-yl}methoxy)phenyl]propyl}-1H-1,2,3-triazole]
